Experimental data: patent US20180028594A1, “[…] OPIOID RECEPTOR AGONISTS FOR HARD TISSUE PAIN” (Cara Therapeutics, Inc., priority 2014, published 2018)

What was measured:
[1] = system: Somatic and visceral pain; test: Acetic Acid Writhing, somato-visceral inflammatory pain model; assay type: in vivo; settings: Mouse
Experimental: (§1) In standard preclinical pain models, CR845 successfully attenuated acute and chronic visceral, inflammatory and neuropathic pain in a dose-dependent manner (see Table 1, below). The analgesic effect of CR845 was recordable within 15 minutes post-administration and lasted for up to 18 hours following single-dose administration.

[2] = system: mechanical hyperalgesia; test: Complete Freund's Adjuvant, chronic inflammatory pain model; assay type: in vivo; settings: Rat
Experimental: as §1

[3] = system: mechanical hyperalgesia; test: Carrageenan, acute inflammatory pain model; assay type: in vivo; settings: Rat
Experimental: as §1

[4] = system: tactile allodynia; test: L5/6 Spinal Nerve Ligation (Chung Model) of neuropathic pain; assay type: in vivo, Rat
Experimental: FIG. 1: Efficacy of CR845 in “Chung Model” of neuropathic pain is blocked with Peripheral (Intrapaw) administration of a kappa antagonist (norBNI) in rats. *** denotes p<0.001. compared to vehicle-treated controls (two-way ANOVA). Vehicle or Nor-BNI was administered intraplantarly (0.2 mg) 15 min prior to CR845. Injection (1 mg/kg). N=6 male rats/group, mean±SEM.
The peripheral mechanism of action of CR845 is supported preclinically by both biochemical in vitro assays and in vivo functional pharmacological studies. […] Moreover, in standard preclinical pain models, such as the “Chung Model” of neuropathic pain, the analgesic action of CR845 was blocked with kappa opioid receptor antagonists administered directly to the local site of injury, indicating a peripheral site of action for CR845 (FIG. 1). In the “Chung Model”, neuropathic pain is induced experimentally by ligating spinal nerves mediating sensation for a hind limb. […] Sets of different thickness filaments are used to test sensitivity, each of which is designed to produce a given force (in grams) upon bending after contact. By testing with these filaments, the minimum force to evoke a withdrawal response defines the paw withdrawal threshold. The nerve injury produces a marked reduction in paw withdrawal thresholds (increased sensitivity to force) in response to probing with the filaments.

[5] = system: acute and chronic visceral, inflammatory and neuropathic pain; test: Standard preclinical pain models, onset and duration of analgesic effect; assay type: in vivo
Experimental: as §1

[6] = system: pro-inflammatory mediators; test: Production and release of pro-inflammatory mediators
[7] = Pharmacokinetic studies, drug in extracted brain tissue; assay type: in vivo; settings: animals, analgesic and supra-analgesic doses
[8] = Phase 1 clinical trials, safety and sedation (Ramsey Sedation Scale); assay type: in vivo, human
Source text: The most common TEAEs across evaluated populations were transient facial tingling or numbness, dizziness, fatigue and a transient increase in urine output in the absence of electrolyte loss, or aquaresis. […] No other changes in vital signs, including supine pulse rate, blood pressure, respiratory rate, oral body temperature, or oxygen saturation were reported, nor were any clinically significant changes observed in electrocardiogram characteristics. Additionally, the CNS adverse events characteristic of prior-generation CNS-active kappa agonists, such as acute psychiatric side effects, were not observed with CR845. The potential to cause sedation was assessed using the Ramsey Sedation Scale in the ascending dose-tolerance Phase 1 trial (Study 2048-001) of I.V. CR845, which included 54 subjects (17 on placebo; 37 on CR845).

[9] = system: postoperative pain (soft tissue surgery); settings: human, in vivo
[10] = system: postoperative pain (hard tissue surgery); settings: human, in vivo

CC(C)C[C@@H](NC(=O)[C@@H](Cc1ccccc1)NC(=O)[C@H](N)Cc1ccccc1)C(=O)N[C@H](CCCCN)C(=O)N1CCC(N)(C(=O)O)CC1 [CR845, D-Phe-D-Phe-D-Leu-D-Lys-[ω(4-aminopiperidine-4-carboxylic acid)]—OH]
Duration of Action [1]: >18 h | ED50 (I.V., mg/kg) ([1]; I.V.): 0.07 mg/kg | Duration of Action [2]: >2 h | ED50 (I.V., mg/kg) ([2]; I.V., mechanical hyperalgesia): 0.08 mg/kg | Duration of Action [3]: >1 h | ED50 (I.V., mg/kg) ([3]; I.V., mechanical hyperalgesia): 0.3 mg/kg | ED50 (I.V., mg/kg) ([4]; Rat, I.V., L5/6 Spinal Nerve Ligation, tactile allodynia): 0.3 mg/kg | Duration of Action ([4]; Rat, L5/6 Spinal Nerve Ligation): >8 h | Paw withdrawal threshold ([4]; rats, I.V. CR845 1 mg/kg, Chung Model): increase in the withdrawal threshold | Time at which analgesic effect was recordable post-administration [5]: ≤ 15 min | Duration of analgesic effect following single-dose administration ([5]; single dose): up to 18 hours | Production and release of pro-inflammatory mediators [6]: decreased the production and release of pro-inflammatory mediators | Concentration of drug in extracted brain tissue [7]: no measurable concentrations | Sedation, Ramsey Sedation Scale ([8]; ascending dose-tolerance Phase 1 trial (Study 2048-001), I.V., healthy subjects): did not cause sedation | Tolerability ([8]; four Phase 1 clinical trials): generally well tolerated | Greater reduction in pain intensity (PID) at 24 hours compared to Placebo/Placebo [9]: approximately 60% | Improvement in mean SPID values 0-4 hour compared to Placebo/Placebo [9]: 3.5 fold | Incidence of nausea, patients [9]: 26.1% | Incidence of vomiting, patients [9]: 1.7% | Mean TOTPAR0-2, pain relief within first 2 hours compared to Placebo/Placebo [9]: statistically superior pain relief | Percentage of patients characterized as Responders (global evaluation of study medication) compared to placebo [9]: higher percentage | Pruritus reported compared to placebo [9]: less pruritus | Reduction of incidence of nausea versus placebo [9]: approximately 50% | Reduction of incidence of vomiting versus placebo [9]: ~80% | SPID over 0-8, 0-12 and 0-16 time periods compared to Placebo/Placebo [9]: reduced pain intensity | Blood sodium increase (hypernatremia), of total patients ([9]; iv, 0.04 mg/kg): 14% | Acute psychiatric side effects [10]: no evidence of acute psychiatric side effects | Mean PID from baseline relative to placebo across 48 hour trial period [10]: numerically superior | Most frequent TEAEs (greater than 10%) [10]: transient facial tingling and somnolence | Reduction of incidence of nausea compared to placebo [10]: 60% | Reduction of incidence of vomiting compared to placebo [10]: 80% | SPID scores 0-24, 0-36, 0-48 compared to placebo [10]: Numerical improvements | Rise of mean plasma sodium concentration from baseline ([10]; iv, 0.005 mg/kg): approximately 3% | SPID0-24 compared to placebo ([10]; iv, 0.005 mg/kg): statistically significant reduction in pain intensity | SPID0-36 compared to placebo ([10]; iv, 0.005 mg/kg): statistically significant | SPID0-48 compared to placebo ([10]; iv, 0.005 mg/kg): statistically significant

Oc1ccc2c3c1O[C@H]1c4[nH]c5c(c4C[C@@]4(O)[C@@H](C2)N(CC2CC2)CC[C@]314)C[C@@]1(O)[C@H]2Cc3ccc(O)c4c3[C@@]1(CCN2CC1CC1)[C@H]5O4 [nor-BNI, nor-binaltorphamine, reference compound]
Effect of kappa antagonist on efficacy of CR845 ([4]; rats, 0.2 mg intraplantar into injured paw 15 min prior to CR845 1 mg/kg): significantly reduces the effect of CR845
